ChEMBL document CHEMBL1144958 (Bioorg Med Chem Lett, 2003)

Legend:
HEK293 = assay: Binding affinity towards nicotinic acetylcholine receptor alpha7 - 5-hydroxytryptamine 3 receptor was determined in transfected HEK cells (alpha7) using [125I]-alpha-BgTx as radioligand; format: cell-based
[1] = target: Neuronal acetylcholine receptor; alpha4/beta2 (Rattus norvegicus, UniProt P09483+P12390); assay: Binding affinity towards alpha4-beta2 nicotinic receptor was determined in rat brain membrane using [3H]cytisine as radioligand; format: cell membranes
Sequence of Neuronal acetylcholine receptor; alpha4/beta2 (P09483 whole entry): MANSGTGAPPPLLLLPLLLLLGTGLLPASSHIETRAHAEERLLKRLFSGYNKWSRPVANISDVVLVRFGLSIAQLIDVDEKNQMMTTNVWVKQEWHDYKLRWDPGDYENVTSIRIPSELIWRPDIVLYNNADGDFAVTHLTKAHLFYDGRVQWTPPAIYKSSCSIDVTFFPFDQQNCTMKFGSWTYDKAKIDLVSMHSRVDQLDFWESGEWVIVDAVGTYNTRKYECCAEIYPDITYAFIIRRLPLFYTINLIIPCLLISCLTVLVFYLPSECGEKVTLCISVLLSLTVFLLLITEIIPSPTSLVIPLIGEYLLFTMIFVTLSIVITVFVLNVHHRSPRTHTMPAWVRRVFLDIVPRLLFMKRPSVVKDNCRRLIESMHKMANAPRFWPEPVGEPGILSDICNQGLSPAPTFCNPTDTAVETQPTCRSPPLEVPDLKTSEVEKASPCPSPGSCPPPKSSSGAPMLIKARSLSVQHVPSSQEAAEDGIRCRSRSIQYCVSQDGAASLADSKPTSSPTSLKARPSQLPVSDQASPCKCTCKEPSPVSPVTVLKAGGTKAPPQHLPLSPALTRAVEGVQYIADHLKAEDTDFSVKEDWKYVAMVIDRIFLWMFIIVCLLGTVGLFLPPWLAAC
Sequence of Neuronal acetylcholine receptor; alpha4/beta2 (P12390 whole entry): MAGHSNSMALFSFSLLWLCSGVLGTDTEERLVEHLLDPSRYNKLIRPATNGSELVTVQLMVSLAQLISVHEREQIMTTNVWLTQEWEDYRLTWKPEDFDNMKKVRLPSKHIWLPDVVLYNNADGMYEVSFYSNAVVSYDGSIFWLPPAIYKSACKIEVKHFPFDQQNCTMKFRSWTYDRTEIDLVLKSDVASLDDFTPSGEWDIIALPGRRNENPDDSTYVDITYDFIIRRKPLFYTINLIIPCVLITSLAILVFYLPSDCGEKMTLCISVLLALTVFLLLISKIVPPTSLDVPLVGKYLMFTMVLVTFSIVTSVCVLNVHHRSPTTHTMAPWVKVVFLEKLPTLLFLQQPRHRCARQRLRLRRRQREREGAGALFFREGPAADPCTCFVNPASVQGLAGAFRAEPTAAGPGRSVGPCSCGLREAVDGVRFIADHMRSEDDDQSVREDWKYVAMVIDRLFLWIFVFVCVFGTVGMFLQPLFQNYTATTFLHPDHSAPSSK

Clc1ccc(C2CC3CCC2N3)cn1 (configuration not stated)
binding affinity (HEK293): 0.075 µM

O=C(CCl)Nc1ccc(C2CC3CCC2N3)cn1 (configuration not stated)
binding affinity (HEK293): 23 µM
Ki [1]: 16.3 nM

COC(=O)Nc1ccc(C2CC3CCC2N3)cn1 (configuration not stated)
binding affinity (HEK293): > 1000 µM
Ki [1]: 8100 nM

Clc1ncc(C2CC3CCC2N3)cn1 (configuration not stated)
binding affinity (HEK293): 0.76 µM
Ki [1]: 0.31 nM
